Measurements reported in patent US11999727B2 (Tango Therapeutics, Inc., priority 2020, dated 2024).
pIC50: −log10 of the molar value.

Experiments:
PRMT5 [1] = molecular target: T1, PRMT5 (Homo sapiens, UniProt O14744); assay: PRMT5 biochemical IC50 assay with SAM as cofactor; conditions: PRMT5, SAM as cofactor; read-out: SAM IC50
T1 construct: purchased Viva (custom protein)

PRMT5 [2] = molecular target: T1, PRMT5; assay: PRMT5 biochemical IC50 assay with no cofactor; conditions: PRMT5, no cofactor; read-out: No Cofactor/rel IC50
Excerpt: Table 1 indicates IC50 values (μM) against PRMT5 for exemplary compounds in the presence of SAM as cofactor, with no cofactor, and with MTA as cofactor, respectively (columns 4-6). […] Ki values can be calculated from the IC50 values as described in the Examples section. As detailed in the Examples section, for the assay performed in the presence of SAM, IC50=Ki×1.5 (Ki=IC50/1.5).

PRMT5 [3] = molecular target: T1, PRMT5; assay: PRMT5 biochemical IC50 assay with MTA as cofactor; conditions: PRMT5, MTA as cofactor; read-out: MTA IC50
[4] = test system: HAP1 MTAP-intact cell line; assay: SDMA in-cell western assay, HAP1 MTAP-intact; type: cell-based; conditions: Homo sapiens, HAP1, SDMA in-cell western, HAP1 MTAP-intact; read-out: MTAP HAP1 intact IC50
Outline: (§1)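 Readout: in-cell western detection of SDMA. Cells: HAP1 expressing endogenous MTAP and an MTAP-null HAP1 counterpart. Output: IC50.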

[5] = test system: HAP1 MTAP-deleted cell line; assay: SDMA in-cell western assay, HAP1 MTAP-deleted; type: cell-based; conditions: for pIC50: Homo sapiens, HAP1, SDMA in-cell western, HAP1 MTAP-deleted; for MTAP intact/deleted ratio: IC50 ratio HAP1 MTAP-intact / HAP1 MTAP-deleted, SDMA in-cell western
Outline: as §1

[6] = test system: HAP1 MTAP-deleted cell line; assay: Viability assay, MTAP-deleted cell line; type: cell-based; conditions: Homo sapiens, read-out: HAP1 MTAP deleted viability
Excerpt: Table 1 additionally indicates IC50 values in a viability assay for the MTAP-deleted cell line (column 10), indicating the effect of treatment with compound on cell survival.

[7] = read-out: HAP1 MTAP deleted IC50
[8] = HAP1, viability assay, MTAP-deleted cell line
[9] = read-out: HAP 1 MTAP deleted IC50
[10] = HAP1, viability IC50, MTAP-deleted cell line

T1 sequence (O14744 whole entry): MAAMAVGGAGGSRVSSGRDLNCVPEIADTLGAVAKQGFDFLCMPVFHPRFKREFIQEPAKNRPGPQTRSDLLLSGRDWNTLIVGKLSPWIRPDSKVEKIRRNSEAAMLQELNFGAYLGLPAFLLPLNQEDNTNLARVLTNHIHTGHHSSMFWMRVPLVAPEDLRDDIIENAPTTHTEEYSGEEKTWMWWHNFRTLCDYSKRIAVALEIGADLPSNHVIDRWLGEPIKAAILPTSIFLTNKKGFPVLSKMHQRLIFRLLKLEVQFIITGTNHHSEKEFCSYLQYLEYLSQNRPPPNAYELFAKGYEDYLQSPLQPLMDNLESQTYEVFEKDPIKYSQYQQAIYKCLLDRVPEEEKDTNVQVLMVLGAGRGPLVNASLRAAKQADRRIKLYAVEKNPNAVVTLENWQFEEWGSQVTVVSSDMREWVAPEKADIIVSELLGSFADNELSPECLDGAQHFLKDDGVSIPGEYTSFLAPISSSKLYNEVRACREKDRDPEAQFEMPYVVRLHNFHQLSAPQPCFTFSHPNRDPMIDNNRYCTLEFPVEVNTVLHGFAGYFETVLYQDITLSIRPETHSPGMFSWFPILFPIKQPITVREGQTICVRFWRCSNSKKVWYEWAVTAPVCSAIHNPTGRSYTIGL
T1 sequence (Q9BQA1 whole entry partner): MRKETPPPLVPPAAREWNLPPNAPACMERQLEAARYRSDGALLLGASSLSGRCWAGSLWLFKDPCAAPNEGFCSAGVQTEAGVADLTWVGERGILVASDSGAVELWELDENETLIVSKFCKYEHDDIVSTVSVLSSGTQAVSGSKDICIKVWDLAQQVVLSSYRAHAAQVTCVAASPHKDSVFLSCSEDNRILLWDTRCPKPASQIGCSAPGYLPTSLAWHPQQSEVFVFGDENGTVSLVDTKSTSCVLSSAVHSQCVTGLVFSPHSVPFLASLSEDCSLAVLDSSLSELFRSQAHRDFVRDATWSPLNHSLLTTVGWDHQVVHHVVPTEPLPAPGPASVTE

SMILES | pIC50 (PRMT5 [1]) | pIC50 (PRMT5 [2]) | pIC50 (PRMT5 [3]) | pIC50 [4] | pIC50 [5, 7] | MTAP intact/deleted ratio [5] | pIC50 [6, 8] | pIC50 [5, 9] | pIC50 [6, 10]
C[C@@H]1CCN(C(=O)C(=O)Nc2cncc(C(N)=O)c2)[C@H](c2ccccc2)C1 (racemic) [Compound 442, 5-(2-(4-methyl-2-phenylpiperidin-1-yl)-2-oxoacetamido)nicotinamide] | 6.30 to 7.30 | 6.30 to 7.30 | 6.30 to 7.30 | < 6.00 | 6.00 to 7.00 | A (an IC50 ratio greater than or equal to 10 fold) | 5.00 to 6.00 |  | 
C[C@@H]1CN(C(=O)C(=O)Nc2cncc(C(N)=O)c2)[C@@H](c2ccccc2)C[C@H]1O (racemic) [Compound 459, rac-5-[[2-[(2R,4R,5R)-4-hydroxy-5-methyl-2-phenyl-1-piperidyl]-2-oxo-acetyl]amino]pyridine-3-carboxamide] | 6.30 to 7.30 | 6.30 to 7.30 | 6.30 to 7.30 | < 6.00 | 6.00 to 7.00 | A (an IC50 ratio greater than or equal to 10 fold) | < 5.00 |  | 
C[C@@H]1CN(C(=O)C(=O)Nc2cncc(C(N)=O)c2)[C@@H](c2ccccc2)C[C@@H]1O (racemic) [Compound 470, rac-5-[[2-[(2R,4S,5R)-4-hydroxy-5-methyl-2-phenyl-1-piperidyl]-2-oxo-acetyl]amino]pyridine-3-carboxamide] | 6.30 to 7.30 | 6.30 to 7.30 | 6.30 to 7.30 | < 6.00 | 6.00 to 7.00 | A (an IC50 ratio greater than or equal to 10 fold) | < 5.00 |  | 
C[C@@H]1CC[C@@H](c2ccccc2)N(C(=O)C(=O)Nc2cnc(O)c(C(N)=O)c2)C1 (racemic) [Compound 494, rac-2-hydroxy-5-(2-((2R,5S)-5-methyl-2-phenylpiperidin-1-yl)-2-oxoacetamido)nicotinamide] | < 6.30 | 6.30 to 7.30 | 6.30 to 7.30 | < 6.00 | < 6.00 | C (an IC50 ratio of less than 3 fold) | < 5.00 |  | 
CC[C@@H]1CCN(C(=O)C(=O)Nc2cncc(C(N)=O)c2)[C@H](c2ccccc2)C1 (racemic) [Compound 497, rac-5-[[2-[(2S,4R)-4-ethyl-2-phenyl-1-piperidyl]-2-oxo-acetyl]amino]pyridine-3-carboxamide] | 6.30 to 7.30 | 6.30 to 7.30 | > 7.30 | < 6.00 | 6.00 to 7.00 | A (an IC50 ratio greater than or equal to 10 fold) | 5.00 to 6.00 |  | 
CNc1ccc([C@@H]2CC[C@@H](C)CN2C(=O)C(=O)Nc2cnc(N)c(C)c2)cc1 (racemic) [Compound 498, N-(6-amino-5-methyl-3-pyridyl)-2-[(2S,5R)-5-methyl-2-[4-(methylamino)phenyl]-1-piperidyl]-2-oxo-acetamide] | 6.30 to 7.30 | 6.30 to 7.30 | 6.30 to 7.30 | < 6.00 | > 7.00 | A (an IC50 ratio greater than or equal to 10 fold) | > 6.00 |  | 
Cc1n[nH]c2ccc([C@@H]3CC[C@@H](C)CN3C(=O)C(=O)Nc3cncc(C(N)=O)c3)cc12 (racemic) [Compound 500, rac-5-[[2-[(2S,5R)-5-Methyl-2-(3-methyl-1H-indazol-5-yl)-1-piperidyl]-2-oxo-acetyl]amino]pyridine-3-carboxamide] | 6.30 to 7.30 | 6.30 to 7.30 | 6.30 to 7.30 | < 6.00 | 6.00 to 7.00 | A (an IC50 ratio greater than or equal to 10 fold) | 5.00 to 6.00 |  | 
COc1ncc(NC(=O)C(=O)N2C[C@@H](C)CC[C@@H]2c2csc3ccccc23)cc1C(N)=O (racemic) [Compound 501, 5-[[2-[2-(benzothiophen-3-yl)-5-methyl-1-piperidyl]-2-oxo-acetyl]amino]-2-methoxy-pyridine-3-carboxamide] | < 6.30 | < 6.30 | 6.30 to 7.30 | < 6.00 | < 6.00 | B (an IC50 ratio greater than or equal to 3 fold but lower than 10 fold) | < 5.00 |  | 
C[C@@H]1CCC[C@H]2CN(C(=O)C(=O)Nc3cncc(C(N)=O)c3)CC[C@H]21 (racemic) [Compound 515, 5-(2-(5-methyloctahydroisoquinolin-2(1H)-yl)-2-oxoacetamido)nicotinamide] | 6.30 to 7.30 | < 6.30 | 6.30 to 7.30 | < 6.00 | < 6.00 | B (an IC50 ratio greater than or equal to 3 fold but lower than 10 fold) | < 5.00 |  | 
C[C@@H]1CC[C@@H]([C@@H]2CCC(O)C2)N(C(=O)C(=O)Nc2cncc(C(N)=O)c2)C1 (mixture of isomers) [Compound 517, 5-[[2-[(2S,5R)-2-(3-Hydroxycyclopentyl)-5-methyl-1-piperidyl]-2-oxo-acetyl]amino]pyridine-3-carboxamide] | < 6.30 | < 6.30 | 6.30 to 7.30 | < 6.00 | < 6.00 | C (an IC50 ratio of less than 3 fold) | < 5.00 |  | 
C[C@@H]1CC[C@@](C)(c2ccccc2)N(C(=O)C(=O)Nc2cncc(C(N)=O)c2)C1 (racemic) [Compound 521, 5-(2-(2,5-dimethyl-2-phenylpiperidin-1-yl)-2-oxoacetamido)nicotinamide] | < 6.30 | < 6.30 | 6.30 to 7.30 | < 6.00 | < 6.00 | B (an IC50 ratio greater than or equal to 3 fold but lower than 10 fold) | < 5.00 |  | 
C[C@@H]1CC[C@@H](c2ccc(-c3ccn[nH]3)cc2)N(C(=O)C(=O)Nc2cncc(C(N)=O)c2)C1 (racemic) [Compound 524, 5-[[2-[(2S,5R)-5-methyl-2-[4-(1H-pyrazol-5-yl)phenyl]-1-piperidyl]-2-oxo-acetyl]amino]pyridine-3-carboxamide] | 6.30 to 7.30 | 6.30 to 7.30 | 6.30 to 7.30 | < 6.00 | 6.00 to 7.00 | A (an IC50 ratio greater than or equal to 10 fold) | 5.00 to 6.00 |  | 
Cc1cc(NC(=O)C(=O)N2C[C@H](C)CC[C@H]2c2ccc(-c3cn[nH]c3)cc2)cnc1N (racemic) [Compound 525, rac N-(6-amino-5-methyl-3-pyridyl)-2-[(2S,5R)-5-methyl-2-[4-(1H-pyrazol-4-yl)phenyl]-1-piperidyl]-2-oxo-acetamide] | < 6.30 | 6.30 to 7.30 | 6.30 to 7.30 | 6.00 to 7.00 | > 7.00 | A (an IC50 ratio greater than or equal to 10 fold) | > 6.00 |  | 
Cc1cc(NC(=O)C(=O)N2C[C@H](C)CC[C@H]2c2ccc(-c3ccn[nH]3)cc2)cnc1N (racemic) [Compound 526, rac N-(6-amino-5-methyl-3-pyridyl)-2-[(2S,5R)-5-methyl-2-[4-(1H-pyrazol-5-yl)phenyl]-1-piperidyl]-2-oxo-acetamide] | 6.30 to 7.30 | 6.30 to 7.30 | 6.30 to 7.30 | 6.00 to 7.00 | > 7.00 | A (an IC50 ratio greater than or equal to 10 fold) | > 6.00 |  | 
C[C@@H]1CCC[C@@H]2CN(C(=O)C(=O)Nc3cncc(C(N)=O)c3)CC[C@@H]21 (racemic) [Compound 536, 5-(2-(5-methyloctahydroisoquinolin-2(1H)-yl)-2-oxoacetamido)nicotinamide] | 6.30 to 7.30 | < 6.30 | 6.30 to 7.30 | < 6.00 |  | A (an IC50 ratio greater than or equal to 10 fold) |  | 6.00 to 7.00 | < 5.00
C[C@@H]1CC[C@@H](c2ccc(F)c(O)c2)N(C(=O)C(=O)Nc2cncc(C(N)=O)c2)C1 (racemic) [Compound 540, 5-[[2-[(2R,5S)-2-(4-fluoro-3-hydroxy-phenyl)-5-methyl-1-piperidyl]-2-oxo-acetyl]amino]pyridine-3-carboxamide] | 6.30 to 7.30 | 6.30 to 7.30 | > 7.30 | < 6.00 |  | A (an IC50 ratio greater than or equal to 10 fold) |  | > 7.00 | > 6.00
C[C@@H]1CN(C(=O)C(=O)Nc2cncc(C(N)=O)c2)C[C@@H]2CCCC[C@@H]21 (racemic) [Compound 541, 5-[[2-[(4S,4aR,8aR)-4-Methyl-3,4,4a,5,6,7,8,8a-octahydro-1H-isoquinolin-2-yl]-2-oxo-acetyl]amino]pyridine-3-carboxamide] | 6.30 to 7.30 | < 6.30 | 6.30 to 7.30 | < 6.00 |  | A (an IC50 ratio greater than or equal to 10 fold) |  | 6.00 to 7.00 | 5.00 to 6.00
